Measurements published in patent publication US20190224186A1, “TREATMENT OF MULTIPLE SCLEROSIS WITH CHS-131” (InteKrin Therapeutics, Inc., priority 2016, published 2019).
“And” between values parts separate entries of the source, which are not always exact repeats. Equal entries are not always repeated.

Legend:
[1] = tested on: MS patients in the relapsing and remitting course of the disease (RRMS); test: Calculated dose response curve: expected new gadolinium CE T1-weighted lesions over six months; set-up: species or system human
Experimental: To test the hypothesis that women will benefit from higher doses of CHS-131 and identify efficacious doses of CHS-131 for women, a dose response curve was calculated. The dose response curve was calculated to determine the efficacy of various daily dose of CHS-131 for males and females. The dose-response curve is assumed to have the following form: RDose=α exp β−Dose+γ Parameter β was determined from negative binomial regression using the observed total new GAD CE lesions 6 Months and numeric dosage of 0, 1, 3 mg. Parameters α and γ were determined using least-squares method on the observed mean total new GAD CE lesions 6 Months. Based on the clinical trial data, we calculated the expected number of new gadolinium CE T1-weighted lesions that would be seen over six months on doses of CHS-131 ranging from 1 to 10 mg per day. Table 7 below provides a tabular report of the percent reduction compared to the number of lesions at a 0 mg dose.

[2] = tested on: MS patients in the relapsing and remitting course of the disease (RRMS); test: Phase 2 trial: change in cortical (neocortical) volume by MRI, SIENAX-MTP3; format: in vivo, human; details: 3 mg
Experimental: Upon completion of the six-month trial period described in Example 1 the change in neocortical volume and whole brain volume was evaluated. Table 9 below reports the change in neocortical volumes at 3 months and at 6 months, compared to baseline, for the 3 mg and placebo groups. Baseline volume was normalized for head size. Percent change is calculated by […]-multi-time point (MTP3) algorithm. The difference in the mean change in volume calculated to determine the impact treatment with CHS-131.

[3] = tested on: MS patients in the relapsing and remitting course of the disease (RRMS); test: Phase 2 trial: whole brain volume by serial MRIs; format: in vivo, human
Experimental: Whole brain volume was evaluated at baseline and six months in this study. Neural atrophy was measured by serial determination of brain volume using serial MRIs.

[4] = tested on: MS patients in the relapsing and remitting course of the disease (RRMS); test: Phase 2 trial: change in cortical (neocortical) volume by MRI, SIENAX-MTP3; format: in vivo, human; details: 1 mg

With `O=S(=O)(Nc1cc(Cl)c(Oc2cnc3ccccc3c2)c(Cl)c1)c1ccc(Cl)cc1Cl` [CHS-131] the “Expected # of Lesions” value ([1]; Females, 1 mg) was 7.14, the “Expected Percent Change from Placebo” value ([1]; Females, 1 mg) was −25.9% and the “Expected Percent Reduction vs 0 mg dose” value ([1]; Females, 1 mg) was 13.98%. For the same compound, the “Expected # of Lesions” value ([1]; Females, 2 mg) was 6.15, the “Expected Percent Change from Placebo” value ([1]; Females, 2 mg) was −36.0% and the “Expected Percent Reduction vs 0 mg dose” value ([1]; Females, 2 mg) was 25.90%. For the same compound, the “Expected # of Lesions” value ([1]; Females, 3 mg) was 5.31, the “Expected Percent Change from Placebo” value ([1]; Females, 3 mg) was −44.7% and the “Expected Percent Reduction vs 0 mg dose” value ([1]; Females, 3 mg) was 36.02%. For the same compound, the “Expected # of Lesions” value ([1]; Females, 4 mg) was 4.59, the “Expected Percent Change from Placebo” value ([1]; Females, 4 mg) was −52.1% and the “Expected Percent Reduction vs 0 mg dose” value ([1]; Females, 4 mg) was 44.70%. For the same compound, the “Expected # of Lesions” value ([1]; Females, 5 mg) was 3.97, the “Expected Percent Change from Placebo” value ([1]; Females, 5 mg) was −58.5% and the “Expected Percent Reduction vs 0 mg dose” value ([1]; Females, 5 mg) was 52% and 52.17%. For the same compound, the “Expected # of Lesions” value ([1]; Females, 6 mg) was 3.45, the “Expected Percent Change from Placebo” value ([1]; Females, 6 mg) was −63.9% and the “Expected Percent Reduction vs 0 mg dose” value ([1]; Females, 6 mg) was 58.43%. The “Expected # of Lesions” value ([1]; Females, 7 mg) was 3.00, the “Expected Percent Change from Placebo” value ([1]; Females, 7 mg) was −68.5% and the “Expected Percent Reduction vs 0 mg dose” value ([1]; Females, 7 mg) was 63.86%. For the same compound, the “Expected # of Lesions” value ([1]; Females, 8 mg) was 2.62, the “Expected Percent Change from Placebo” value ([1]; Females, 8 mg) was −72.4% and the “Expected Percent Reduction vs 0 mg dose” value ([1]; Females, 8 mg) was 68.43%. The “Expected # of Lesions” value ([1]; Females, 9 mg) was 2.29, the “Expected Percent Change from Placebo” value ([1]; Females, 9 mg) was −75.8% and the “Expected Percent Reduction vs 0 mg dose” value ([1]; Females, 9 mg) was 72.41%. The “Expected # of Lesions” value ([1]; Females, 10 mg) was 2.01, the “Expected Percent Change from Placebo” value ([1]; Females, 10 mg) was −100.0% and the “Expected Percent Reduction vs 0 mg dose” value ([1]; Females, 10 mg) was 75.78%. For the same compound, the “Expected # of Lesions” value ([1]; Males & Females, 1 mg) was 6.79, the “Expected Percent Change from Placebo” value ([1]; Males & Females, 1 mg) was −31.4% and the “Expected Percent Reduction vs 0 mg dose” value ([1]; Males & Females, 1 mg) was 17.20%. For the same compound, the “Expected # of Lesions” value ([1]; Males & Females, 2 mg) was 5.63, the “Expected Percent Change from Placebo” value ([1]; Males & Females, 2 mg) was −43.0% and the “Expected Percent Reduction vs 0 mg dose” value ([1]; Males & Females, 2 mg) was 31.34%. The “Expected # of Lesions” value ([1]; Males & Females, 3 mg) was 4.67, the “Expected Percent Change from Placebo” value ([1]; Males & Females, 3 mg) was −52.6% and the “Expected Percent Reduction vs 0 mg dose” value ([1]; Males & Females, 3 mg) was 43.05%. For the same compound, the “Expected # of Lesions” value ([1]; Males & Females, 4 mg) was 3.89, the “Expected Percent Change from Placebo” value ([1]; Males & Females, 4 mg) was −60.5% and the “Expected Percent Reduction vs 0 mg dose” value ([1]; Males & Females, 4 mg) was 52.56%. The “Expected # of Lesions” value ([1]; Males & Females, 5 mg) was 3.24, the “Expected Percent Change from Placebo” value ([1]; Males & Females, 5 mg) was −66.9% and the “Expected Percent Reduction vs 0 mg dose” value ([1]; Males & Females, 5 mg) was 60.49%. The “Expected # of Lesions” value ([1]; Males & Females, 6 mg) was 2.71, the “Expected Percent Change from Placebo” value ([1]; Males & Females, 6 mg) was −72.3% and the “Expected Percent Reduction vs 0 mg dose” value ([1]; Males & Females, 6 mg) was 66.95%. The “Expected # of Lesions” value ([1]; Males & Females, 7 mg) was 2.27, the “Expected Percent Change from Placebo” value ([1]; Males & Females, 7 mg) was −76.6% and the “Expected Percent Reduction vs 0 mg dose” value ([1]; Males & Females, 7 mg) was 72.32%. The “Expected # of Lesions” value ([1]; Males & Females, 8 mg) was 1.92, the “Expected Percent Change from Placebo” value ([1]; Males & Females, 8 mg) was −80.2% and the “Expected Percent Reduction vs 0 mg dose” value ([1]; Males & Females, 8 mg) was 76.59%. The “Expected # of Lesions” value ([1]; Males & Females, 9 mg) was 1.62, the “Expected Percent Change from Placebo” value ([1]; Males & Females, 9 mg) was −83.2% and the “Expected Percent Reduction vs 0 mg dose” value ([1]; Males & Females, 9 mg) was 80.24%. For the same compound, the “Expected # of Lesions” value ([1]; Males & Females, 10 mg) was 1.38, the “Expected Percent Change from Placebo” value ([1]; Males & Females, 10 mg) was −100.0% and the “Expected Percent Reduction vs 0 mg dose” value ([1]; Males & Females, 10 mg) was 83.17%. For the same compound, the “Expected # of Lesions” value ([1]; Males, 1 mg) was 6.33, the “Expected Percent Change from Placebo” value ([1]; Males, 1 mg) was −42.0% and the “Expected Percent Reduction vs 0 mg dose” value ([1]; Males, 1 mg) was 23.73%. For the same compound, the “Expected # of Lesions” value ([1]; Males, 2 mg) was 4.81, the “Expected Percent Change from Placebo” value ([1]; Males, 2 mg) was −56.1% and the “Expected Percent Reduction vs 0 mg dose” value ([1]; Males, 2 mg) was 42.05%. For the same compound, the “Expected # of Lesions” value ([1]; Males, 3 mg) was 3.64, the “Expected Percent Change from Placebo” value ([1]; Males, 3 mg) was −67.1% and the “Expected Percent Reduction vs 0 mg dose” value ([1]; Males, 3 mg) was 56% and 56.14%. For the same compound, the “Expected # of Lesions” value ([1]; Males, 4 mg) was 2.73, the “Expected Percent Change from Placebo” value ([1]; Males, 4 mg) was −75.5% and the “Expected Percent Reduction vs 0 mg dose” value ([1]; Males, 4 mg) was 67.11%. The “Expected # of Lesions” value ([1]; Males, 5 mg) was 2.03, the “Expected Percent Change from Placebo” value ([1]; Males, 5 mg) was −82.1% and the “Expected Percent Reduction vs 0 mg dose” value ([1]; Males, 5 mg) was 75.54%. The “Expected # of Lesions” value ([1]; Males, 6 mg) was 1.49, the “Expected Percent Change from Placebo” value ([1]; Males, 6 mg) was −87.1% and the “Expected Percent Reduction vs 0 mg dose” value ([1]; Males, 6 mg) was 82.05%. The “Expected # of Lesions” value ([1]; Males, 7 mg) was 1.07, the “Expected Percent Change from Placebo” value ([1]; Males, 7 mg) was −91.0% and the “Expected Percent Reduction vs 0 mg dose” value ([1]; Males, 7 mg) was 87.11%. For the same compound, the “Expected # of Lesions” value ([1]; Males, 8 mg) was 0.74, the “Expected Percent Change from Placebo” value ([1]; Males, 8 mg) was −94.1% and the “Expected Percent Reduction vs 0 mg dose” value ([1]; Males, 8 mg) was 91.08%. The “Expected # of Lesions” value ([1]; Males, 9 mg) was 0.49, the “Expected Percent Change from Placebo” value ([1]; Males, 9 mg) was −96.4% and the “Expected Percent Reduction vs 0 mg dose” value ([1]; Males, 9 mg) was 94.10%. For the same compound, the “Expected # of Lesions” value ([1]; Males, 10 mg) was 0.30, the “Expected Percent Change from Placebo” value ([1]; Males, 10 mg) was −100.0% and the “Expected Percent Reduction vs 0 mg dose” value ([1]; Males, 10 mg) was 96.39%. The “reduction in new lesions on the dose response curve in Table 8” value ([1]; men, 3 mg per day) was 67%, the “expected reduction in lesions as compared to placebo (Table 8)” value ([1]; men, 5 mg per day as printed) was 67% and the “expected reduction in lesions as compared to placebo (Table 8)” value ([1]; women, 5 mg per day) was 56%. For the same compound, the “Cortical volume rate of loss” value ([2]; 3 Months) was −0.297, the “Reduction in cortical volume loss from CHS-131, as compared to placebo” value ([2]; 3 Months) was 42.6% and the “Cortical volume rate of loss” value ([2]; 6 Months) was −0.709. For the same compound, the “Reduction in cortical volume loss from CHS-131, as compared to placebo” value ([2]; 6 Months) was 34.2%, the “Cortical volume, percent change from baseline to 6 month, Mean” value ([2]; n=56) was −0.709% and the “Cortical volume, percent change from baseline to 6 month, Median” value ([2]; n=56) was −0.832%. The “Cortical volume, percent change from baseline to 3 month, Mean” value ([2]; n=61) was −0.297%, the “Cortical volume, percent change from baseline to 3 month, Median” value ([2]; n=61) was −0.325% and the “less neural volume loss compared to placebo” value ([3]; 1 mg daily, 6 months) was 13%. The “brain volume lost over 6 months” value ([3]; 1 mg/day) was 0.14%, the “less parenchymal atrophy than the placebo treated cohort” value ([3]; 3 mg daily, 6 months) was 50% and the “neural parenchyma volume lost over 6 months” value ([3]; 3 mg/day) was 0.08%. For the same compound, the “reduction in the loss of cortical volume” value [4] was “No reduction in the loss of cortical volume was observed”, the “Cortical volume, percent change from baseline to 6 month, Mean” value ([4]; n=50) was −1.350% and the “Cortical volume, percent change from baseline to 6 month, Median” value ([4]; n=50) was −1.428%. The “Cortical volume, percent change from baseline to 3 month, Mean” value ([4]; n=57) was −0.706% and the “Cortical volume, percent change from baseline to 3 month, Median” value ([4]; n=57) was −0.746%.
